Results from US7851474B2, “Dipiperazinyl ketones and related analogues” (Neurogen Corporation, priority 2005, dated 2010).

biological target: T1, chimeric human H3 receptor (Homo sapiens, UniProt Q9Y5N1, E19D); assay: Chimeric human H3 receptor GTP binding assay (agonist-stimulated GTP-gamma35S binding, Example 7); format: biochemical; details: not given
T1 construct: made in house; host or cells: Sf9 insect cells (baculovirus infection); P2 membrane preparation
Summary of the method: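 IC50 values come from non-linear regression of dose-response curves of filter-bound GTP-gamma^35S, counted by scintillation. Membranes were from infected Sf9 cells carrying receptor plus G-protein subunits, 35 μg/tube, with 10 μM GDP present.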

T1 sequence (Q9Y5N1 with tags, fused parts or gaps E19D): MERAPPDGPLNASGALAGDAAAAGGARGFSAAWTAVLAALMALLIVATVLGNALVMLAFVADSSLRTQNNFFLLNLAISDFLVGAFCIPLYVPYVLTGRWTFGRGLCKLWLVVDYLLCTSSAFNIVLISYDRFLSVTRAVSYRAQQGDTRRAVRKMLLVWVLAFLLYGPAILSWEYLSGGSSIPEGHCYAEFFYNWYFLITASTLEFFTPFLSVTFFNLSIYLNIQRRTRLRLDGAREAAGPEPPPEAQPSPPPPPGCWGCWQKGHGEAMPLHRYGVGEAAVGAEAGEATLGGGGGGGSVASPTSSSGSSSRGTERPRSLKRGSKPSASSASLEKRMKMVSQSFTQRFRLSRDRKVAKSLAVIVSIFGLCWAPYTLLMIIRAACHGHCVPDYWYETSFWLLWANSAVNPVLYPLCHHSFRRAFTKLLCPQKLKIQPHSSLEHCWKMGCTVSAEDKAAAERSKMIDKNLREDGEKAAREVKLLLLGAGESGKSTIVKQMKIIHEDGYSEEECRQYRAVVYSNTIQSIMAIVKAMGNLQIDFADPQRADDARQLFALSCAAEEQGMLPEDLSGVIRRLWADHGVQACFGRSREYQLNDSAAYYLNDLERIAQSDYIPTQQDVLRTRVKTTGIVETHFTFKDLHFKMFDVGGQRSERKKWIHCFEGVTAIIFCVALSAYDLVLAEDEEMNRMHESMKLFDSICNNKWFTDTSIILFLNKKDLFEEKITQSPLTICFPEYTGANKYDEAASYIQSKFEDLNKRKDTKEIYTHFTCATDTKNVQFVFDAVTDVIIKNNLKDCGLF

Structure (SMILES) | Ki
CCC(C)N1CCN(C(=O)CN2CCN(c3ccccc3F)CC2)CC1 (centres unmarked) [Compound 867, 1-sec-butyl-4-{[4-(2-fluorophenyl)piperazin-1-yl]acetyl}piperazine] | < 1000 nM
CCC(C)N1CCN(C(=O)CN2CCN(c3ccccc3C)CC2)CC1 (centres unmarked) [Compound 868, 1-sec-butyl-4-{[4-(2-methylphenyl)piperazin-1-yl]acetyl}piperazine] | < 1000 nM
CCC(C)N1CCN(C(=O)CN2CCN(c3cccc(Cl)c3)CC2)CC1 (centres unmarked) [Compound 873, 1-sec-butyl-4-{[4-(3-chlorophenyl)piperazin-1-yl]acetyl}piperazine] | < 1000 nM

same assay, conditions: Table II "Ki", symbol "*": Ki in the assay of Example 7; read-out: Ki

Structure (SMILES) | Ki
CCC(C)N1CCN(C(=O)CN2CCN(c3ccc(F)cc3F)CC2)CC1 (centres unmarked) [Compound 861, 1-sec-butyl-4-{[4-(2,4-difluorophenyl)piperazin-1-yl]acetyl}piperazine] | < 1000 nM
CCC(C)N1CCN(C(=O)CN2CCN(c3ccc(OC)cc3OC)CC2)CC1 (centres unmarked) [Compound 862, 1-sec-butyl-4-{[4-(2,4-dimethoxyphenyl)piperazin-1-yl]acetyl}piperazine] | < 1000 nM
CCC(C)N1CCN(C(=O)CN2CCN(c3ccc(C)cc3C)CC2)CC1 (centres unmarked) [Compound 863] | < 1000 nM
CCC(C)N1CCN(C(=O)CN2CCN(c3cc(C)ccc3C)CC2)CC1 (centres unmarked) [Compound 864, 1-sec-butyl-4-{[4-(2,5-dimethylphenyl)piperazin-1-yl]acetyl}piperazine] | < 1000 nM
CCC(C)N1CCN(C(=O)CN2CCN(c3c(C)cccc3C)CC2)CC1 (centres unmarked) [Compound 865, 1-sec-butyl-4-{[4-(2,6-dimethylphenyl)piperazin-1-yl]acetyl}piperazine] | < 1000 nM
CCC(C)N1CCN(C(=O)CN2CCN(c3ccccc3Cl)CC2)CC1 (centres unmarked) [Compound 866, 1-sec-butyl-4-{[4-(2-chlorophenyl)piperazin-1-yl]acetyl}piperazine] | < 1000 nM
CCC(C)N1CCN(C(=O)CN2CCN(c3ccc(Cl)c(Cl)c3)CC2)CC1 (centres unmarked) [Compound 869, 1-sec-butyl-4-{[4-(3,4-dichlorophenyl)piperazin-1-yl]acetyl}piperazine] | < 1000 nM
CCC(C)N1CCN(C(=O)CN2CCN(c3ccc(OC)c(OC)c3)CC2)CC1 (centres unmarked) [Compound 870, 1-sec-butyl-4-{[4-(3,4-dimethoxyphenyl)piperazin-1-yl]acetyl}piperazine] | < 1000 nM
CCC(C)N1CCN(C(=O)CN2CCN(c3ccc(C)c(C)c3)CC2)CC1 (centres unmarked) [Compound 871, 1-sec-butyl-4-{[4-(3,4-dimethylphenyl)piperazin-1-yl]acetyl}piperazine] | < 1000 nM
CCC(C)N1CCN(C(=O)CN2CCN(c3cc(Cl)cc(Cl)c3)CC2)CC1 (centres unmarked) [Compound 872, 1-sec-butyl-4-{[4-(3,5-dichlorophenyl)piperazin-1-yl]acetyl}piperazine] | < 1000 nM
CCC(C)N1CCN(C(=O)CN2CCN(c3cccc(F)c3)CC2)CC1 (centres unmarked) [Compound 874, 1-sec-butyl-4-{[4-(3-fluorophenyl)piperazin-1-yl]acetyl}piperazine] | < 1000 nM
CCC(C)N1CCN(C(=O)CN2CCN(c3cccc(OC)c3)CC2)CC1 (centres unmarked) [Compound 875, 1-sec-butyl-4-{[4-(3-methoxyphenyl)piperazin-1-yl]acetyl}piperazine] | < 1000 nM
CCC(C)N1CCN(C(=O)CN2CCN(c3cccc(C)c3)CC2)CC1 (centres unmarked) [Compound 876, 1-sec-butyl-4-{[4-(3-methylphenyl)piperazin-1-yl]acetyl}piperazine] | < 1000 nM
CCC(C)N1CCN(C(=O)CN2CCN(c3ccc(Cl)c(OC)c3)CC2)CC1 (centres unmarked) [Compound 877, 1-sec-butyl-4-{[4-(4-chloro-3-methoxyphenyl)piperazin-1-yl]acetyl}piperazine] | < 1000 nM
CCC(C)N1CCN(C(=O)CN2CCN(c3ccc(Cl)c(C)c3)CC2)CC1 (centres unmarked) [Compound 878, 1-sec-butyl-4-{[4-(4-chloro-3-methylphenyl)piperazin-1-yl]acetyl}piperazine] | < 1000 nM
CCC(C)N1CCN(C(=O)CN2CCN(c3ccc(Cl)cc3)CC2)CC1 (centres unmarked) [Compound 879, 1-sec-butyl-4-{[4-(4-chlorophenyl)piperazin-1-yl]acetyl}piperazine] | < 1000 nM
CCC(C)N1CCN(C(=O)CN2CCN(c3ccc(F)cc3)CC2)CC1 (centres unmarked) [Compound 880, 1-sec-butyl-4-{[4-(4-fluorophenyl)piperazin-1-yl]acetyl}piperazine] | < 1000 nM
CCC(C)N1CCN(C(=O)CN2CCN(c3ccc(OC)cc3)CC2)CC1 (centres unmarked) [Compound 881, 1-sec-butyl-4-{[4-(4-methoxyphenyl)piperazin-1-yl]acetyl}piperazine] | < 1000 nM
CCC(C)N1CCN(C(=O)CN2CCN(c3ccc(C)cc3)CC2)CC1 (centres unmarked) [Compound 882, 1-sec-butyl-4-{[4-(4-methylphenyl)piperazin-1-yl]acetyl}piperazine] | < 1000 nM

Structure (SMILES) | Ki
CCC(C)N1CCN(C(=O)CN2CCN(c3ccc([N+](=O)[O-])cc3)CC2)CC1 (centres unmarked) [Compound 883, 1-sec-butyl-4-{[4-(4-nitrophenyl)piperazin-1-yl]acetyl}piperazine] | < 1000 nM
CCC(C)N1CCN(C(=O)CN2CCN(c3cc(Cl)ccc3OC)CC2)CC1 (centres unmarked) [Compound 884, 1-sec-butyl-4-{[4-(5-chloro-2-methoxyphenyl)piperazin-1-yl]acetyl}piperazine] | < 1000 nM
CCC(C)N1CCN(C(=O)CN2CCN(c3cc(Cl)ccc3C)CC2)CC1 (centres unmarked) [Compound 885, 1-sec-butyl-4-{[4-(5-chloro-2-methylphenyl)piperazin-1-yl]acetyl}piperazine] | < 1000 nM
O=C(CN1CCN(c2cnc(-c3ccc4c(c3)OCO4)cn2)CC1)N1CCN(C2CCC2)CC1 [Compound 896, 2-(1,3-benzodioxol-5-yl)-5-{4-[2-(4-cyclobutylpiperazin-1-yl)-2-oxoethyl]piperazin-1-yl}pyrazine] | < 1000 nM
Cc1ccc(F)c(-c2cnc(N3CCN(CC(=O)N4CCN(C5CCC5)CC4)CC3)cn2)c1Cl [Compound 897, 2-(2-chloro-6-fluoro-3-methylphenyl)-5-{4-[2-(4-cyclobutylpiperazin-1-yl)-2-oxoethyl]piperazin-1-yl}pyrazine] | < 1000 nM
O=C(CN1CCN(c2cnc(-c3ccccc3Cl)cn2)CC1)N1CCN(C2CCC2)CC1 [Compound 898, 2-(2-chlorophenyl)-5-{4-[2-(4-cyclobutylpiperazin-1-yl)-2-oxoethyl]piperazin-1-yl}pyrazine] | < 1000 nM
O=C(CN1CCN(c2cnc(-c3ccc(F)c(Cl)c3)cn2)CC1)N1CCN(C2CCC2)CC1 [Compound 899, 2-(3-chloro-4-fluorophenyl)-5-{4-[2-(4-cyclobutylpiperazin-1-yl)-2-oxoethyl)piperazin-1-yl}pyrazine] | < 1000 nM
O=C(CN1CCN(c2cnc(-c3cccc(Cl)c3)cn2)CC1)N1CCN(C2CCC2)CC1 [Compound 900, 2-(3-chlorophenyl)-5-{4-[2-(4-cyclobutylpiperazin-1-yl)-2-oxoethyl]piperazin-1-yl}pyrazine] | < 1000 nM
CCCCc1ccc(-c2cnc(N3CCN(CC(=O)N4CCN(C5CCC5)CC4)CC3)cn2)cc1 [Compound 901, 2-(4-butylphenyl)-5-{4-[2-(4-cyclobutylpiperazin-1-yl)-2-oxoethyl]piperazin-1-yl}pyrazine] | < 1000 nM
O=C(CN1CCN(c2cnc(-c3ccc(Cl)cc3F)cn2)CC1)N1CCN(C2CCC2)CC1 [Compound 902, 2-(4-chloro-2-fluorophenyl)-5-{4-[2-(4-cyclobutylpiperazin-1-yl)-2-oxoethyl]piperazin-1-yl}pyrazine] | < 1000 nM
O=C(CN1CCN(c2cnc(-c3ccc(Cl)c(F)c3)cn2)CC1)N1CCN(C2CCC2)CC1 [Compound 903, 2-(4-chloro-3-fluorophenyl)-5-{4-[2-(4-cyclobutylpiperazin-1-yl)-2-oxoethyl]piperazin-1-yl}pyrazine] | < 1000 nM
O=C(CN1CCN(c2cnc(-c3ccc(Cl)cc3)cn2)CC1)N1CCN(C2CCC2)CC1 [Compound 904, 2-(4-chlorophenyl)-5-{4-[2-(4-cyclobutylpiperazin-1-yl)-2-oxoethyl]piperazin-1-yl}pyrazine] | < 1000 nM
O=C1CCc2cc(N3CCC(C(=O)OCC(=O)N4CCN(C5CCC5)CC4)CC3)ccc21 [Compound 905, 2-(4-cyclobutylpiperazin-1-yl)-2-oxoethyl 1-(1-oxo-2,3-dihydro-1H-inden-5-yl)piperidine-4-carboxylate] | < 1000 nM
O=C(OCC(=O)N1CCN(C2CCC2)CC1)N1C=CC2(CC1)c1ccccc1C(=O)N2Cc1ccccc1 (centres unmarked) [Compound 906, 2-(4-cyclobutylpiperazin-1-yl)-2-oxoethyl 2-benzyl-3-oxo-2,2′,3,3′-tetrahydro-1′H-spiro[isoindole-1,4′-pyridine]-1′-carboxylate] | < 1000 nM
O=C1CCc2cc(N3CCC(C(=O)OCC(=O)N4CCN(C5CCCC5)CC4)CC3)ccc21 [Compound 907, 2-(4-cyclopentylpiperazin-1-yl)-2-oxoethyl 1-(1-oxo-2,3-dihydro-1H-inden-5-yl)piperidine-4-carboxylate] | < 1000 nM
CC(=O)c1ccc(N2CCC(C(=O)OCC(=O)N3CCN(C4CCCC4)CC3)CC2)cc1 [Compound 908, 2-(4-cyclopentylpiperazin-1-yl)-2-oxoethyl 1-(4-acetylphenyl)piperidine-4-carboxylate] | < 1000 nM
O=C1CCc2cc(N3CCN(C(=O)OCC(=O)N4CCN(C5CCCC5)CC4)CC3)ccc21 [Compound 909, 2-(4-cyclopentylpiperazin-1-yl)-2-oxoethyl 4-(1-oxo-2,3-dihydro-1H-inden-5-yl)piperazine-1-carboxylate] | < 1000 nM
CC(C)(C)c1ccc(-c2cnc(N3CCN(CC(=O)N4CCN(C5CCC5)CC4)CC3)cn2)cc1 [Compound 910, 2-(4-tert-butylphenyl)-5-{4-[2-(4-cyclobutylpiperazin-1-yl)-2-oxoethyl]piperazin-1-yl}pyrazine] | < 1000 nM
COc1ccc(Cl)cc1-c1cnc(N2CCN(CC(=O)N3CCN(C4CCC4)CC3)CC2)cn1 [Compound 911, 2-(5-chloro-2-methoxyphenyl)-5-{4-[2-(4-cyclobutylpiperazin-1-yl)-2-oxoethyl]piperazin-1-yl}pyrazine] | < 1000 nM
